# Source: patent publication US20040229844A1, “Method of treating atherosclerosis, dyslipidemias and related conditions” (priority 2003, published 2004)
# “Also recorded” adds a separate entry of the source.
# What was measured:
# [1] = test system: nicotinic acid-induced vasodilation; test: Nicotinic acid-induced vasodilation in mice (ear perfusion, laser Doppler); format: in vivo, mouse; conditions: male C57BL/6 mice, DP antagonist ~40 mpk i.p., nicotinic acid ~100 mpk s.c., FIGS. 2 and 3
# Method: Blood flow in the mouse ear (a measure of vasodilation, a prominent component of flushing in humans) is measured after administration of nicotinic acid to mice that had been pretreated with vehicle (as a control) or a DP antagonist. Specifically, male C57BL/6 mice (˜25 g) were used in the study. Five mice were evaluated in each test group. Nembutal was diluted with water to a final concentration of 5 mg/ml and injected 0.3 ml/mouse intraperitoneally. DP antagonists were dissolved in 5% hydroxypropyl β-cyclodextrin at a final concentration of 5 mg/mi and the compounds were administered intraperitoneally at a volume of 0.2 mi/mouse (˜40 mpk). Nicotinic acid was dissolved in 5% hydroxypropyl β-cyclodextrin at a final concentration of 12.5 mg/mi. […]
# Perfusion of mouse ear skin was monitored with a laser Doppler perfusion imager (PeriScan PIM II, Perimed, Sweden) every 30 seconds for 15 minutes starting 5 minutes prior to nicotinic acid administration. Percent changes in mean perfusion over the 10 minute period after vehicle or nicotinic acid administration were calculated and a graph of percent change in mean perfusion vs. time was generated for each animal. The area under the curve (AUC) of mean perfusion (% Δ×min) was then calculated from each graph and the results are expressed in mean AUC±SEM for each group.
# [2] = test system: prostaglandin D2-induced vasodilation; test: Prostaglandin D2-induced vasodilation in mice; format: in vivo, mouse; conditions: FIG. 1
# From the text: Compound D suppressed PGD-2 induced vasodilation in the mouse (FIG. 1). The DP antagonists tested suppressed nicotinic acid-induced vasodilation in the mouse; data for selected compounds is provided in FIGS. 2 and 3.
compound,measurement,setting,value
CC(O)c1cc(S(C)(=O)=O)cc2c3c(n(Cc4ccc(Cl)cc4)c12)[C@@H](CC(=O)O)CC3 (some centres unmarked) [Compound D],inhibition of nicotinic acid-induced vasodilation,[1],inhibits
same,inhibition of prostaglandin D2-induced vasodilation,[2],inhibits; also recorded: suppressed
